Test [1] concerns the target T1, Serine/threonine-protein kinase STK11 (Homo sapiens, UniProt Q15831).
T1 sequence (Q15831 whole entry): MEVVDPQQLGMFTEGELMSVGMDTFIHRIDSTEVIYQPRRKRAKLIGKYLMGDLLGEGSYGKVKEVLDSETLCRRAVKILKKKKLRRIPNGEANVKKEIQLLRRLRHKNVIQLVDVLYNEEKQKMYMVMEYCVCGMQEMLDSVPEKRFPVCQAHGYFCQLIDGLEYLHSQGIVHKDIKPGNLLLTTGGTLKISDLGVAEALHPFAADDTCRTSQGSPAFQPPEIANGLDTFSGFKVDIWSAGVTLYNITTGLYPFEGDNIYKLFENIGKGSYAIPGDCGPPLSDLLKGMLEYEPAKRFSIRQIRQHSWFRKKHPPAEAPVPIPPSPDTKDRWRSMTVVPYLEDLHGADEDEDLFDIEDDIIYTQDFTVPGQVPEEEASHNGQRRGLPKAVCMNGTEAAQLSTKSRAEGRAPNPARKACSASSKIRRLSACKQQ

For test [2], the target named is DnaJ homolog subfamily A member 1 (Homo sapiens, UniProt P31689).
Test [3] addresses Protein-tyrosine kinase 2-beta (Homo sapiens, UniProt Q14289).
Test [4] addresses G protein-coupled receptor kinase 6 (Homo sapiens, UniProt P43250).
Test [5] deals with T2, Mitogen-activated protein kinase kinase kinase kinase 2 (Homo sapiens, UniProt Q12851).
T2 sequence (Q12851 whole entry): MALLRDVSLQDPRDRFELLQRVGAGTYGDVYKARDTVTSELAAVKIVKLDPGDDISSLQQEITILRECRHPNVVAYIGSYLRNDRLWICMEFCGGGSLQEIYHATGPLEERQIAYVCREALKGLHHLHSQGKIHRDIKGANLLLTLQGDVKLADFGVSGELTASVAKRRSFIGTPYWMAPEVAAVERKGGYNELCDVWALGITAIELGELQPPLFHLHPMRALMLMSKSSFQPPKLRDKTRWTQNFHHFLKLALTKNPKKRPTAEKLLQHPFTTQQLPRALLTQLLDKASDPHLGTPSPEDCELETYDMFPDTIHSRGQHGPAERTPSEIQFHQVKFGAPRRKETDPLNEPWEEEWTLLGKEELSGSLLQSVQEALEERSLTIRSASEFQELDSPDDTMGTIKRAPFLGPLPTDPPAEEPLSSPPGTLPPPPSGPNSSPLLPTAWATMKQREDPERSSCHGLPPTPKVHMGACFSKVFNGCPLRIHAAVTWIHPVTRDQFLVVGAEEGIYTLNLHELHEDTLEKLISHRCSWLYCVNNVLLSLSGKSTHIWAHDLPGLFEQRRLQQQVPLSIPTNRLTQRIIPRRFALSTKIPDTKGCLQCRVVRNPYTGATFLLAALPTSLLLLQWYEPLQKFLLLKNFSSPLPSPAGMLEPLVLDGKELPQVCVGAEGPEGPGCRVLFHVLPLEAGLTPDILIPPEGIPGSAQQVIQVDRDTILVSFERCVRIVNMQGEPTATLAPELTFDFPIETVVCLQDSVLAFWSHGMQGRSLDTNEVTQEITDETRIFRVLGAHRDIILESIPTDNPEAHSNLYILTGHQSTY

In test [6] the target is Obg-like ATPase 1 (Homo sapiens, UniProt Q9NTK5).
Test [7] has as its target Mitogen-activated protein kinase 3 (Homo sapiens, UniProt P27361).
Test [8] has as its target NADH dehydrogenase [ubiquinone] 1 alpha subcomplex subunit 13 (Homo sapiens, UniProt Q9P0J0).
Test [9] concerns the target Serine/threonine-protein kinase MRCK gamma (Homo sapiens, UniProt Q6DT37).
The target of test [10] is T3, Serine/threonine-protein kinase NLK (Homo sapiens, UniProt Q9UBE8).
T3 sequence (Q9UBE8 whole entry): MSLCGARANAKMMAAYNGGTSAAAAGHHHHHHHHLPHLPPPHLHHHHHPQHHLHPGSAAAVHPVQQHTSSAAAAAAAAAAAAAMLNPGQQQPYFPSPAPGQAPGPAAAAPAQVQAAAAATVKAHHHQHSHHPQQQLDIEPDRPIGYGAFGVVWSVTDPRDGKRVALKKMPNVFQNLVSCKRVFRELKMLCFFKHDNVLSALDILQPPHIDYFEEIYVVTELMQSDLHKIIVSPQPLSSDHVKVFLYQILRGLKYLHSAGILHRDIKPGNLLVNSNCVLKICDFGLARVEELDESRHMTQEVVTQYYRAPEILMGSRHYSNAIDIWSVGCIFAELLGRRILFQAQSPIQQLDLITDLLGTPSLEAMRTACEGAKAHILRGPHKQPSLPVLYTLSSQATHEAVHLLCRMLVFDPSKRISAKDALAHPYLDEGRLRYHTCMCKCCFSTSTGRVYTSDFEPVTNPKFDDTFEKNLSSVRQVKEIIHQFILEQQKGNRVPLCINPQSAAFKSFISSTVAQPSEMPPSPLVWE

Test [11] concerns the target 26S proteasome regulatory subunit 6B (Homo sapiens, UniProt P43686).
For test [12], the target named is Myosin-14 (Homo sapiens, UniProt Q7Z406).
The target of test [13] is Serine/threonine-protein kinase PAK 4 (Homo sapiens, UniProt O96013).
In test [14] the target is Aurora kinase B (Homo sapiens, UniProt Q96GD4).
The target in test [15] is T4, Ribosyldihydronicotinamide dehydrogenase [quinone] (Homo sapiens, UniProt P16083).
T4 sequence (P16083 whole entry): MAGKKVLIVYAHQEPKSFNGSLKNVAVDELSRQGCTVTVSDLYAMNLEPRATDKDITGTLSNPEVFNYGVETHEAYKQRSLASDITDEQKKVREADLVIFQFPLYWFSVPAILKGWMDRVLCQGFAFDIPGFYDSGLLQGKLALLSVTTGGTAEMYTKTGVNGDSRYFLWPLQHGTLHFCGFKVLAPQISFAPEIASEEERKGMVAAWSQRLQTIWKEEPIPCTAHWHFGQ

Test [16] has as its target DNA topoisomerase 2-alpha (Homo sapiens, UniProt P11388).

Each structure is given as a SMILES string. Active and inactive are the calls of the source.
Further: in the data inactive means no Kd found up to 30 µM.

Sequence of Protein-tyrosine kinase 2-beta (Q14289 whole entry): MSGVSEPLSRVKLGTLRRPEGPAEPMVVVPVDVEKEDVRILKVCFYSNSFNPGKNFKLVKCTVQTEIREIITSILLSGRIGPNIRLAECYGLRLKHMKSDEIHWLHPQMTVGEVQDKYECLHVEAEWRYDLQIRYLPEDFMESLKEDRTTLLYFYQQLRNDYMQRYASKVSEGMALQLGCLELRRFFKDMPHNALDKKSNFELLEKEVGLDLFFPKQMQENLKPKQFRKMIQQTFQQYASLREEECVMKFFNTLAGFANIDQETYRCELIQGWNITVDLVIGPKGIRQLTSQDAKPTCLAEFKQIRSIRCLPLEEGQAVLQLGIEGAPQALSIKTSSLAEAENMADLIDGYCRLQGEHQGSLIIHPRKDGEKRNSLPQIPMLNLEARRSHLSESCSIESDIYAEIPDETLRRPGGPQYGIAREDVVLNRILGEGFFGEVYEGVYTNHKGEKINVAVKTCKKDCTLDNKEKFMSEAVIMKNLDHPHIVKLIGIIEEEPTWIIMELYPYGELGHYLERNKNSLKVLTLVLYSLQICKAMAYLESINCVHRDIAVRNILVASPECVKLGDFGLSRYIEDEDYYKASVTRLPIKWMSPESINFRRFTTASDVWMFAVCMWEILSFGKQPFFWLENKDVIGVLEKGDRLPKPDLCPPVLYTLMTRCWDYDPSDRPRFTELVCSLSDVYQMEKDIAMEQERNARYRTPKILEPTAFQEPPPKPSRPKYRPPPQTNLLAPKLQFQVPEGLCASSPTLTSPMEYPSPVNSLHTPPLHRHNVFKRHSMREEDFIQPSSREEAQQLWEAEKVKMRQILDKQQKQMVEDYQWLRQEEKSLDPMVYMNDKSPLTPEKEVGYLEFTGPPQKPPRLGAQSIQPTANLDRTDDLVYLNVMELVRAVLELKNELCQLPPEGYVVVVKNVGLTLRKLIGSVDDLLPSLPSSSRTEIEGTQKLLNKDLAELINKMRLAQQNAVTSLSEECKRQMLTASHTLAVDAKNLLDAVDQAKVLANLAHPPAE
Sequence of Mitogen-activated protein kinase 3 (P27361 whole entry): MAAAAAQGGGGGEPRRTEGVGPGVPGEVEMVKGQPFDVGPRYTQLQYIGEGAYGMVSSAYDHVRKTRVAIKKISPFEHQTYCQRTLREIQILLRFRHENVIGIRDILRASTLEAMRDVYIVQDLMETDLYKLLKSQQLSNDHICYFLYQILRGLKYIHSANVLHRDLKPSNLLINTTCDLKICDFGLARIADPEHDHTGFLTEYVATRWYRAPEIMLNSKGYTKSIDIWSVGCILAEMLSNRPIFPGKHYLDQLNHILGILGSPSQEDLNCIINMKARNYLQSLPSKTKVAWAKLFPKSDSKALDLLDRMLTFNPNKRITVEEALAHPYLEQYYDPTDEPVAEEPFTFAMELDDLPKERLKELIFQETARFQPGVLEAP
Sequence of Aurora kinase B (Q96GD4 whole entry): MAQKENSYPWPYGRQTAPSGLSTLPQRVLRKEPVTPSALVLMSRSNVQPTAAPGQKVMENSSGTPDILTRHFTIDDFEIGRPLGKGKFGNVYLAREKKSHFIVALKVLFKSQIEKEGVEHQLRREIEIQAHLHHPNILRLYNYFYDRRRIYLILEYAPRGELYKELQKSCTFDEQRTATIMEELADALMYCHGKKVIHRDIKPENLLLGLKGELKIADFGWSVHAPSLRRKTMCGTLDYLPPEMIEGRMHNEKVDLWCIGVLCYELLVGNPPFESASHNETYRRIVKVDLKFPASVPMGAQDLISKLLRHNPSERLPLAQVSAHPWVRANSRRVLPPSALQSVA
Sequence of NADH dehydrogenase [ubiquinone] 1 alpha subcomplex subunit 13 (Q9P0J0 whole entry, one chain of several): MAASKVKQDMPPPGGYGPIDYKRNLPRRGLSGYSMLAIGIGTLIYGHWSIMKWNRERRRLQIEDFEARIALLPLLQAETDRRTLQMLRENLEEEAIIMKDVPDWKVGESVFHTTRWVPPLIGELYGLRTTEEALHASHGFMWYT
Sequence of DnaJ homolog subfamily A member 1 (P31689 whole entry): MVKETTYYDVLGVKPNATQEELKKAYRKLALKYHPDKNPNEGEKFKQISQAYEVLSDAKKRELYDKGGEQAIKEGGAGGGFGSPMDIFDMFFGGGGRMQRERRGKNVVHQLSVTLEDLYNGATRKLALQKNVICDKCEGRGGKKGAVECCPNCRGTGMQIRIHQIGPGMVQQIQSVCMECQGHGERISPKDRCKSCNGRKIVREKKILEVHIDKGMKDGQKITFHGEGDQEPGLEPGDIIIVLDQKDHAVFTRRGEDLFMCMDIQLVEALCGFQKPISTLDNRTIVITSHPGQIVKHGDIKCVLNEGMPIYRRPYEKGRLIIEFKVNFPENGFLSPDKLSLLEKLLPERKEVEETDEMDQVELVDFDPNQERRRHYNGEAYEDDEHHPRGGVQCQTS
Sequence of 26S proteasome regulatory subunit 6B (P43686 whole entry): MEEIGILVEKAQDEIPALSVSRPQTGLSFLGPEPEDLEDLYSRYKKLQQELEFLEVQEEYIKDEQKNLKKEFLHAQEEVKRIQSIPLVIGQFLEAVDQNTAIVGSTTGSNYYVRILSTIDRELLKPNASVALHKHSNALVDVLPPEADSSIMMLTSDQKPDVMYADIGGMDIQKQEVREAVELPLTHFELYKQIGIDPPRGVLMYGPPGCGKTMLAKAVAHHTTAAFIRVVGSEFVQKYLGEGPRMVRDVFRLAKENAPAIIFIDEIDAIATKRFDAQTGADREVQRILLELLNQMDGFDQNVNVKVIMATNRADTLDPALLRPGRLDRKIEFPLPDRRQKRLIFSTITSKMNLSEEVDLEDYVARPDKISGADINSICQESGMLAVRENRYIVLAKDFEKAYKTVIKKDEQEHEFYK
Sequence of Obg-like ATPase 1 (Q9NTK5 whole entry, looked up): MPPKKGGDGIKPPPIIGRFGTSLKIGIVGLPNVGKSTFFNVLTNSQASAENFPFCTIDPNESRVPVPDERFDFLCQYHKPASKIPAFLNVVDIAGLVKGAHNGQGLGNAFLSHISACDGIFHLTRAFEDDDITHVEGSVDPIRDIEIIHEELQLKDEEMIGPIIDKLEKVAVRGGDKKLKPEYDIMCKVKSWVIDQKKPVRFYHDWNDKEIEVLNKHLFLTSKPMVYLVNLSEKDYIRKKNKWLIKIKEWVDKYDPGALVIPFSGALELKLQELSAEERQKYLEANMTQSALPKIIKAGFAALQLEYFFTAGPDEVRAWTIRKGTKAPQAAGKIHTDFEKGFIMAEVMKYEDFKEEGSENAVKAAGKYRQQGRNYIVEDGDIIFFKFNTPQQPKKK
Sequence of G protein-coupled receptor kinase 6 (P43250 whole entry): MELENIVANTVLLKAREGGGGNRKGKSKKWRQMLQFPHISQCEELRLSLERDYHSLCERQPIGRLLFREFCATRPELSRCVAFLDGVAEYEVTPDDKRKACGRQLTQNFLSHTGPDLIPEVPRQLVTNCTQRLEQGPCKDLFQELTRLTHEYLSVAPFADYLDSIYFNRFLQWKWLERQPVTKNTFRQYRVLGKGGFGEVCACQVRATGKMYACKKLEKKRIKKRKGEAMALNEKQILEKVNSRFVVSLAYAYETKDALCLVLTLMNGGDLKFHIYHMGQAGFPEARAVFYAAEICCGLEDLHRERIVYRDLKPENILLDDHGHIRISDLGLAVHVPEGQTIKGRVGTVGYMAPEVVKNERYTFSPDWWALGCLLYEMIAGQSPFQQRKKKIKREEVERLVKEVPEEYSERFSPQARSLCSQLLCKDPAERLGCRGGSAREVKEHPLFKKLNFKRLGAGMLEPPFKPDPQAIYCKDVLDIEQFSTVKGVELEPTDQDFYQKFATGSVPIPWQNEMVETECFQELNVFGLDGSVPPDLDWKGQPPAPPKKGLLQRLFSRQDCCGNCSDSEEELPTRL
Sequence of Serine/threonine-protein kinase PAK 4 (O96013 whole entry): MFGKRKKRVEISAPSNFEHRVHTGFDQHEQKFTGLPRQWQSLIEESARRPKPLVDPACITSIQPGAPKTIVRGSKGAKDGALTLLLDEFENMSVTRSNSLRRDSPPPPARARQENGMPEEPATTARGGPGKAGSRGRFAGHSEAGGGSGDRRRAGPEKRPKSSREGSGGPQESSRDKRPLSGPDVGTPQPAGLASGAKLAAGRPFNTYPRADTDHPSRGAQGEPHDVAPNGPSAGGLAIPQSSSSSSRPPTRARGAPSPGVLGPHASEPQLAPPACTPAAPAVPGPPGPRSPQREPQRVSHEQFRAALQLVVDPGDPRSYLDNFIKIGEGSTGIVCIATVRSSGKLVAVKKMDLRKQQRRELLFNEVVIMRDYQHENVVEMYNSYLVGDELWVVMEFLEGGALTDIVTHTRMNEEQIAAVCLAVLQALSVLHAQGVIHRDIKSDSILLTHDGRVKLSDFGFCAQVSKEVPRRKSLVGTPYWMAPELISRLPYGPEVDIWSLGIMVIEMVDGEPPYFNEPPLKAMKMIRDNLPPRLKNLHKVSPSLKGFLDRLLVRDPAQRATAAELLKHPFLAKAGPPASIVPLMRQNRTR

As for `CCn1c(C(=O)N(C2CC2)C2CC2)cc2c3c(ncn3C)c(Nc3cc(C)n(C)n3)nc21` [BMS-911543], the Kd in test [1], in test [2], in test [3], in test [4], in test [5] and in [6] was > 30 µM (inactive) each time. In addition, the Kd in test [7], in [8], in test [9], in test [10], in [11] and in test [12] was > 30 µM (inactive) in each case. For the same molecule, the Kd in test [13] was > 30 µM (inactive); in [14], > 30 µM (inactive); in test [15], 5.86 µM (active).
Take `COc1c(OCCCN2CCOCC2)ccc2c1N=C(NC(=O)c1cnc(N)nc1)N1CCN=C21` [COPANLISIB]: the Kd in [1], in test [2], in test [3], in test [4], in [5] and in test [6] was > 30 µM (inactive) in each case. For the same molecule, the Kd in test [7], in test [8], in test [9], in test [10], in test [11] and in test [12] was > 30 µM (inactive) in each case. Further, the Kd in test [13], in test [14] and in test [15] was > 30 µM (inactive) in each case.
On to `Cn1cc(-c2cnc3ccc4ccc(CS(=O)(=O)NCc5ccccn5)cc4c(=O)c3c2)cn1` [MK-8033], for which the Kd in test [1], in [2], in test [3], in test [4], in test [5] and in [6] was > 30 µM (inactive) in each case. The Kd in test [7], in test [8], in [9], in test [10], in [11] and in [12] was > 30 µM (inactive) each time. The Kd in test [13], in test [14] and in test [15] was > 30 µM (inactive) throughout.
Take `CC(=O)NCC(=O)N1[C@@H]2CC[C@H]1c1ccc(Nc3ncc(C(F)(F)F)c(NC4CCC4)n3)cc12` [PF-03814735]: the Kd in test [1], in test [2], in test [4], in test [6], in [7] and in test [9] was > 30 µM (inactive) in each case. The Kd in test [10] is > 30 µM (inactive); in test [11], > 30 µM (inactive); in [14], 0.02 µM (active); in test [15], > 30 µM (inactive).
In the case of `CO[C@H]1C[C@@H]2CC[C@@H](C)[C@@](O)(O2)C(=O)C(=O)N2CCCC[C@H]2C(=O)O[C@H]([C@H](C)C[C@@H]2CC[C@@H](OP(C)(C)=O)[C@H](OC)C2)CC(=O)[C@H](C)/C=C(\C)[C@@H](O)[C@@H](OC)C(=O)[C@H](C)C[C@H](C)/C=C/C=C/C=C/1C` [RIDAFOROLIMUS], the Kd in test [1], in test [2], in test [3], in test [4], in test [16] and in test [5] was > 30 µM (inactive) each time. Moreover, the Kd in test [7], in test [8], in [9], in test [10], in test [11] and in [12] was > 30 µM (inactive) in each case. In addition, the Kd in [13], in test [14] and in test [15] was > 30 µM (inactive) each time.
As for `CN1CCN(CCOc2cc(OC3CCOCC3)c3c(Nc4c(Cl)ccc5c4OCO5)ncnc3c2)CC1` [SARACATINIB], the Kd in test [1], in [2], in test [3], in test [4], in [16] and in test [5] was > 30 µM (inactive) throughout. Moreover, the Kd in test [7], in test [8], in test [9], in [10], in [11] and in test [12] was > 30 µM (inactive) throughout. The Kd in test [13], in test [14] and in test [15] was > 30 µM (inactive) each time.
Turning to `Cn1cc(-c2cnn3c(N)c(Br)c([C@@H]4CCCNC4)nc23)cn1` [SCH-900776], the Kd in test [1], in test [2], in [3], in [4], in test [5] and in [6] was > 30 µM (inactive) each time. The Kd is > 30 µM (inactive) in [7]; > 30 µM (inactive) in test [8]; > 30 µM (inactive) in test [9]; > 30 µM (inactive) in test [10]; 0.005 µM in test [11]; > 30 µM (inactive) in [12]. In addition, the equilibrium dissociation constant (Kd) was 2.9 µM in [13], > 30 µM (inactive) in test [14] and 2.36 µM (active) in test [15].
Regarding `CN1C/C=C/CCOc2cccc(c2)-c2ccnc(n2)Nc2cccc(c2)C1` [ZOTIRACICLIB], the Kd was > 30 µM (inactive) in test [1]; > 30 µM (inactive) in test [2]; > 30 µM (inactive) in test [3]; > 30 µM (inactive) in [4]; > 30 µM (inactive) in [16]; 1.36 µM (active) in [5]. The Kd in test [7], in test [8], in test [9], in [10], in [11] and in test [12] was > 30 µM (inactive) in each case. In addition, the Kd in test [13], in [14] and in test [15] was > 30 µM (inactive) throughout.

What is called Kd is the concentration at which binding is half-saturated.

Values taken from ChEMBL document CHEMBL3991601, “The target landscape of clinical kinase drugs” (Science, 2017).
